How the values were obtained:
[1] = test system: PDZ; conditions: reference number not printed at place (probably ref 20), cited from earlier work
From the text: From a double-exponential fit we extracted characteristic bound-state lifetimes of 16 ± 1 and 83 ± 16 ms, corresponding to k off values of 61 ± 5 and 12 ± 3 s^–1. The slow dissociation rate constant is similar to previously reported values for the same interaction with immobilized peptides (k off ≈ 6.3 s^–1). […] The underlying molecular mechanism leadi ... || In order to quantify association kinetics and related particle-to-particle differences, analysis is based on the average dark time (t d ) in between events (unbound-state lifetime). Together with the number of proteins per particle (n), and the concentration of the labeled peptide solution (c i ), it follows that kon=1/tdcin . The binding event frequency’s dependency on the number of proteins per particle was assessed through several measurements, using particle preparations with different average numbers of proteins per particle (Figure .D). Herein, a control sample (DNA decorated, 0 proteins ...

[2] = target: T1, Erbin PDZ (MBP-PDZ immobilized on gold nanorods via DNA) (Homo sapiens, UniProt Q96RT1); experiment: single-molecule plasmon-enhanced fluorescence binding kinetics of PDZ-peptide interaction
T1 construct: Since neither the utilized PDZ domain nor MBP contains natural cysteines; single introduced cysteine in the linker between MBP and PDZ (handle for DNA coupling); host or cells: E. coli BL21(DE3)
T1 sequence (Q96RT1 1321-1410 limits assumed): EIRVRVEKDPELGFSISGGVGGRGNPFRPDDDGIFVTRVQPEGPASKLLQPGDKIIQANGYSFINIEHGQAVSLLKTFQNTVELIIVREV

[3] = unspecific binding of labeled peptide to DNA-coated gold nanoparticles without protein (negative control); conditions: DNA decorated, 0 proteins per particle; 60 ms exposure, 1 nM labeled peptide in PBS
From the text: 2 Characterization of the PDZ-peptide binding interactions. (A) Typical microcopy FOV of the immobilized gold nanoparticles. Each FOV (∼ 43 μm by 43 μm) typically contains around 100 stochastically immobilized particles, yielding average interparticle distances of several micrometers. A time trace of one of the gold nanoparticles is shown, on which the peptide–protein binding events can be seen as fluorescence bursts. An expanded region of the time trace showcases a few examples of individual bright-times and dark-times. (B) Typical signals obtained from peptide binding on a gold nanorod (blue) and on the glass (red). (C) Plot depicting the distribution of bright times (bound-state lifetimes) of the protein-peptide interactions, based on all recorded particles. […]
In order to quantify association kinetics and related particle-to-particle differences, analysis is based on the average dark time (t d ) in between events (unbound-state lifetime). […] The binding event frequency’s dependency on the number of proteins per particle was assessed through several measurements, using particle preparations with different average numbers of proteins per particle (Figure .D). […] Dim fluorescence signals that would have been lost in unenhanced studies can now readily be detected, giving rise to more accurate event detection, and thus, a more representative k on value.

[4] = test system: PDZ directly conjugated to gold nanorods; experiment: peptide binding to PDZ conjugated directly to gold nanorods via a cysteine linker; conditions: direct conjugation to gold nanorods via cysteine linker, no DNA
From the text: In this study we utilize single-crystalline GNPs (nanorods) to probe protein–protein interactions at the single-molecule level. To facilitate single-molecule studies the particles are immobilized onto a glass coverslip to enable the imaging of single nanoparticles. Before immobilization, we conjugated protein (PDZ) to the nanoparticles using a solution-phase protocol. We initially tried direct conjugation of PDZ to the gold nanorods via a cysteine linker. […] We then developed a DNA-mediated conjugation approach. This approach, through the rigid nature of double-stranded DNA, allows for control over the time-average distance between the proteins and the GNPs. This controlled distance is crucial, as it prevents a direct interaction between the protein and the gold, thereby preventing denaturation. Moreover, it still allows the proteins to be placed close to the gold nanorods, which facilitates potent fluorescence enhancement of the fluorescently labeled binding partners (Supplementary Figure 1).

[5] = test system: PDZ (MBP-PDZ immobilized on gold nanorods); experiment: urea-mediated unfolding/refolding of immobilized PDZ, read out by peptide binding kinetics; type: biochemical
From the text: Next, we employed the platform to monitor protein unfolding and refolding. […] After validating that the observed event rate decrease was not caused by protein dissociation from the GNPs (Supplementary Figure 8), we next characterized the concentration dependency of this urea-mediated PDZ unfolding (Figure B). The protein-peptide binding frequency, and thus PDZ conformational integrity, clearly decreases in a urea concentration-dependent manner.
3 Urea-mediated PDZ denaturation. […] (B) Left/blue data points: PDZ-peptide binding event frequencies at different urea concentrations. To prevent cumulative and/or time-mediated influences, measurements at each concentration were performed with a fresh sample. Error bars represent the effect of each sample’s Poisson distribution of the number of proteins per particle on the average binding frequencies. Right/green data points: PDZ-peptide binding event frequencies of a similar sample, after incubation at 6.4 M urea and subsequent removal thereof. (C) Bright-time distribution of the PDZ-peptide binding events at different urea concentrations. […] The 95% confidence interval is obtained by propagating 1.96 SE of the corresponding tb fits.
5 minute steps at 5000 rpm each). After each centrifugation step, supernatants were discarded, and pellets were re-dissolved (200 µL of 25 mM HEPES (pH 7.4) after the first spin step, 200 µL of milliQ after step 2 and 3, and 150 µL of 10 mM HEPES (pH 7.4) + 0.0025 w/v% Tween20 + 1 mM MgCl2 after step 4.
For each reaction, 5.0 µL of protein-DNA conjugate was added to a 150 µL particle solution as prepared above. Added protein-DNA concentrations varied from 250 pM to 2 µM depending on the desired number of proteins per particle.
Reactions were either incubated for 2 hours at room temperature (~21 °C), or overnight in the fridge (4 °C). After incubation, 1.5 µL of 20 w/v% BSA in PBS was added to each sample, following an additional 15 minutes of incubation.
Next, samples were washed using 4 centrifugal steps (5 minutes at 5000 rpm and 4 °C each). After each spin step, supernatants were removed, and particles were re-suspended using 10 mM HEPES pH 7.4, 0.0025 w/v% Tween20, 1 mM MgCl2, 0.2 w/v% BSA (150 µL after step 1-3, 75 µL after step 4).
Functionalized gold nanoparticle concentrations were determined through absorption measurements on a Thermo Scientific Nanodrop 2000 apparatus. Fluorescence spectroscopy-based protein quantifications were performed through fluorescence measurements on a Varioskan Lux platereader (500 nm excitation, 12nm bandwidth, low dynamic range, […]
Sample preparation for microscopy measurements
Glass microscopy slides (Menzel #1.5 24*40 mm) were sonicated in MeOH for 15 minutes, and blown dry using nitrogen gas afterwards. Next, slides were plasma treated for 1 minute. Imaging spacer stickers were added to the cleaned glass slides. Particles were diluted to OD = 0.1 (at 650 nm, 1 cm pathlength) in PBS, and for each sample 50 µL was pipetted into the imaging spacer. Samples were incubated for at least 5 minutes, after which the majority of particles were firmly immobilized. Depending on the measurement, samples were used as described, or briefly washed with PBS (unfolding/refolding measurements).
Fluorescence microscopy measurements
Samples were measured through fluorescence microscopy. The utilized setup’s main components consi sted of a Coherent OBIS 637 nm laser, Nikon eclipse Ti2 microscope body, Apo TIRF 60x 1.49 NA DIC N2 Oil objective, and Prime BSI Express CMOS camera. All measurements were performed using TIRF illumination. Sample and imaging conditions […]
Table S.2. Sample and imaging conditions per experiment.
Experiment/associated Laser power (mW): Exposure (ms): Labeled peptide
Figure(s): concentration (nM):
Kinetic analysis – 50 20 1 dissociation kinetics. Figure
Kinetic analysis: association 50 60 1 […]
Peptide and urea solutions were all prepared in PBS. […]

[6] = test system: ATTO 532-PDZ decorated gold nanoparticles; experiment: stability of GNP-protein conjugate to urea (fluorescence of ATTO 532-PDZ on particles); conditions: 4 M urea, 15 minutes, then exchanged for PBS; five particles, 532 nm laser
Protocol: Supplementary Figure 7. Fluorescence polarization curve of the interaction between MBP-PDZ (no DNA attached) ௣ ) + Aଶ , yields a Kd (x0) of 0.2 µM (p set to 1 and ATTO 655-labeled peptide. The fit (y =((Aଵ −Aଶ )/(1 + ቀ[௣௥௢௧௘௜௡ ]௄೏ ቁ to represent 1:1 binding). Measurement performed with 10 nM peptide in 10 mM HEPES pH 7.4, 150 mM NaCl, 0.1 v/v% Tween 20, 0.1 w/v% BSA, 1 mM DTT.
Supplementary Figure 8. Mean fluorescence intensities of five ATTO 532- PDZ decorated gold nanoparticles before and after exposure to 4 M urea. Immobilized particles were briefly imaged with a 532 nm laser before exposure to urea, with bare PBS in the bulk solution. Next, the laser was turned off, urea was added towards 4 M, and the sample was incubated for 15 minutes. Afterwards, the urea solution was exchanged for fresh PBS, the laser turned on, and fluorescence intensities measured again.
ATTO 532-labeled PDZ proteins remained on the particles.
(also on this page, place not known: inte raction =( (Aଵ −A ଶ)/(1 ቀ [௣௥௢௧௘௜௡] ௄೏ 350Polarization (mP) P1, before P1, after P2, before P2, after P3, before P3, after P4, before P4, after P5, before P5, after 8000Mean fluorescence intensity (counts))

H-[C(ATTO655)]GAGRGSIDTWV-OH [ATTO 655-labeled peptide, Atto-655 labeled peptide purchased from SB Peptide]
k on (previously reported) ([1]; PAINT experiments): ≈ 3.6 × 10^5 M^–1 s^–1
k off (previously reported) ([1]; same interaction with immobilized peptides, integration time 60 ms): ≈ 6.3 s^–1
distribution of bound-state lifetimes ([2]; all particles (Figure 2C), also on single particles (Supplementary Figure 6)): double exponential
characteristic bound-state lifetime, short component ([2]; double-exponential fit of bright times, all recorded particles, 20 ms exposure, 50 mW 637 nm laser, TIRF, 1 nM labeled peptide in PBS): 16 ± 1 ms
characteristic bound-state lifetime, long component ([2]; double-exponential fit of bright times, all recorded particles, 20 ms exposure, 50 mW 637 nm laser, TIRF, 1 nM labeled peptide in PBS, less frequent events): 83 ± 16 ms
k on ([2]; linear fit of event frequency vs average number of proteins per particle, kon=1/tdcin, 60 ms exposure, 50 mW, 1 nM labeled peptide in PBS): (1.2 ± 0.1) × 10^7 M^–1 s^–1
slope of binding event frequency vs number of proteins per particle ([2]; linear fit, intercept 0, 60 ms exposure, 1 nM labeled peptide in PBS): 12 mHz/protein
event frequency on control particles (unspecific binding) [3]: 2 mHz
peptide binding of directly conjugated PDZ [4]: no peptide binding

NC(N)=O [urea]
average PDZ-peptide binding event frequency at 0.2 M urea ([5]; 0.2 M urea, 2 nM labeled peptide in PBS, within Poisson distribution): slight increase
time for refolding of PDZ after urea removal ([5]; after 6.4 M urea, time required for fluid exchange and initiation of imaging): ≤ 1 min
k off values at different urea concentrations ([5]; based on dominant short lifetimes of double exponential fits, 2 nM labeled peptide in PBS, 40 ms exposure): no significant deviations
bound-state lifetimes for increasing urea concentrations ([5]; bright time distributions, 2 nM labeled peptide in PBS, 40 ms exposure): did not significantly change
PDZ-peptide binding frequency after removal of urea (refolding) ([5]; pre-incubation with 6.4 M urea for 20 minutes, then washed, 2 nM labeled peptide in PBS): recovered toward initial levels
occurrence of PDZ-peptide interactions at 4.0 M urea ([5]; time traces of a particle before and after 4.0 M urea, 2 nM labeled peptide in PBS): terminates the occurrence of PDZ-peptide interactions
fluorescence intensity of ATTO 532-PDZ decorated particles after urea exposure [6]: no reduced fluorescence intensities
